Experimental data from patent US20120034192A1, “COMPOSITIONS AND METHODS FOR ENHANCING CELL REPROGRAMMING” (priority 2008, published 2012).

Columns and labels:
[1] = test system: 2nd KSO cells (secondary mouse embryonic fibroblasts); experiment: iPS cell colony formation from 2nd KSO secondary MEFs after siRNA transfection; assay type: cell-based; settings: siRNA 50 nM
Text: Applicants next sought to determine the effect of inhibiting H3K9 methyltransferases on generation of iPS cells. For some experiments, Applicants used “secondary” mouse embryonic fibroblasts (MEFs) that express murine reprogramming factors Klf4, Sox2, and Oct4 under the control of a doxycycline (“dox”)-inducible promoter. These cells, which are referred to as “2nd KSO” cells for short, reprogram to form iPS cells at a low frequency upon treatment with doxycycline, as described in the literature. The cells contained an Oct4-neo transgene, thereby allowing use of G418 to select for cells that were reprogrammed to pluripotency (as evidenced by expression from the Oct4 promoter).
Applicants plated 2nd KSO cells into individual wells of 6-well dishes (100,000 cells per well) in mES cell medium (3 ml) on day 0. On day 1, cells in individual wells were transfected with siRNA (Ambion) designed to inhibit expression of a gene encoding one of the following H3K9 methyltransferases: Ehmt1, Ehmt2, Suv39h1, Suv39h2, and Riz1. Two different siRNAs targeted to each of these genes were used (each well received a single siRNA sequence). […] Accordingly, results obtained using this siRNA must be disregarded. […]
Cells were treated with dox to induce expression of the reprogramming factors. […] Colonies were counted on day 20.

histone deacetylase = settings: cited from earlier work
G9a HMTase = molecular target: T1, G9a HMTase (Homo sapiens, UniProt Q96KQ7); settings: cited from earlier work
T1 sequence (Q96KQ7 1-1210): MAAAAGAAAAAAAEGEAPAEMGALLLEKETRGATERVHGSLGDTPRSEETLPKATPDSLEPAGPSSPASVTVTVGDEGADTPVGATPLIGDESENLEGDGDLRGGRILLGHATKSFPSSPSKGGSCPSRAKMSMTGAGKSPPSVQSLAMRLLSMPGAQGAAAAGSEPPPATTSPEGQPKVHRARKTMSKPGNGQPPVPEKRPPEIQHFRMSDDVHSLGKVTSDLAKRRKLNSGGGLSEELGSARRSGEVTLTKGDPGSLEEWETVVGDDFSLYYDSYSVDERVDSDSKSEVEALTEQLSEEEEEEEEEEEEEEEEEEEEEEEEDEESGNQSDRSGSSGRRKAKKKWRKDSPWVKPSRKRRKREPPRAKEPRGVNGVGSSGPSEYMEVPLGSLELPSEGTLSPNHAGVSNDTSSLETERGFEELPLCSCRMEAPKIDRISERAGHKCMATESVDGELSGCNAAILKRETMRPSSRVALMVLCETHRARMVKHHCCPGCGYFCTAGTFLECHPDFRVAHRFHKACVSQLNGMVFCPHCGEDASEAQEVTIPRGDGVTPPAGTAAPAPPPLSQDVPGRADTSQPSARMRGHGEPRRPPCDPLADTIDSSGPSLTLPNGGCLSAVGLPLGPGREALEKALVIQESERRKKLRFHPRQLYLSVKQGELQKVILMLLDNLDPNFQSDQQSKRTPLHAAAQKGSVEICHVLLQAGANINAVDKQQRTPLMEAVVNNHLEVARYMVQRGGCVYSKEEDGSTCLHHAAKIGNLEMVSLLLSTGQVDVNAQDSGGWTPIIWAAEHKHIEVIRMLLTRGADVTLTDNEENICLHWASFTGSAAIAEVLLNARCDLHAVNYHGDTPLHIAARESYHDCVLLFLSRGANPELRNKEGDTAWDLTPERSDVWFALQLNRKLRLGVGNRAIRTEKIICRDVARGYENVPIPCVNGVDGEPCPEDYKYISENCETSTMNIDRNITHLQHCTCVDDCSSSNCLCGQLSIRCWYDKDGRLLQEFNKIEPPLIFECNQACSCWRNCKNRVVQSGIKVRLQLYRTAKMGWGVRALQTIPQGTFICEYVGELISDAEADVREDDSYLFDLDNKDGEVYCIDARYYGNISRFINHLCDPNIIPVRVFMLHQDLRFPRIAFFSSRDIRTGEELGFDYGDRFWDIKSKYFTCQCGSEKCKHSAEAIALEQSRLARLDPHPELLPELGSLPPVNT

s82302: siRNA (Ambion) vs suv39h2; sense GUGUCGAUGUGGACCUGAAtt, antisense UUCAGGUCCACAUCGACACct (sense GUGUCGAUGUGGACCUGAATT; antisense UUCAGGUCCACAUCGACACCT; chemistry not given here)
cell growth ([1]; 2nd KSO cells): inhibited cell growth

CC(/C=C/C(=O)NO)=C\[C@@H](C)C(=O)c1ccc(N(C)C)cc1 [Trichostatin A, [R-(E,E)]-7-[4-(Dimethylamino)phenyl]-N-hydroxy-4,6-dimethyl-7-oxo-2,4-heptadienamide]
concentration inhibiting histone deacetylase (histone deacetylase): nanomolar concentrations

COc1cc2nc(N3CCCN(C)CC3)nc(NC3CCN(Cc4ccccc4)CC3)c2cc1OC [BIX-01294]
competition with cofactor S-adenosyl-methionine (G9a HMTase): does not compete with the cofactor S-adenosyl-methionine
selective inhibition of HMTase and generation of H3K9me2 (G9a HMTase; in vitro): selectively impairs the G9a HMTase and the generation of H3K9me2 in vitro

siRNA #2 against SetDB1: siRNA (Ambion) vs ESET/SetDB1; sense GGACGAUGCAGGAGAUAGAtt, antisense UCUAUCUCCUGCAUCGUCCga (sense GGACGAUGCAGGAGAUAGATT; antisense UCUAUCUCCUGCAUCGUCCGA; chemistry not given here)
number of iPS cell colonies / reprogramming efficiency ([1]; dox, G418 from day 14, colonies counted on day 20): most striking increase in reprogramming efficiency
